Experimental data as given in ChEMBL document CHEMBL3639378, “Morpholinone compounds as factor IXA inhibitors” (2015).

Target: Coagulation factor IX (Homo sapiens, UniProt P00740)
Test: Test substances dissolved in buffer A (50 mM α,α,α-tris (hydroxymethyl)methylamine (Tris), 100 mM NaCl, 5 mM CaCl2, 15% (v/v) ethylene glycol, pH 8.0) were mixed with factor IXa (2.0 μg/ml final concentration). The enzyme reaction was started by addition of SPECTROFLUOR FIXa (100 μM final concentration).

Chain of Coagulation factor IX (P00740 47-191 limits assumed): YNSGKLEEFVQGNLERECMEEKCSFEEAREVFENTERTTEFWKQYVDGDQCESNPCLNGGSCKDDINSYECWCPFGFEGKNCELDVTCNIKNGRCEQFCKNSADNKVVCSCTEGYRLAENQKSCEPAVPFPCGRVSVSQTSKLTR
Chain of Coagulation factor IX (P00740 227-461 limits assumed): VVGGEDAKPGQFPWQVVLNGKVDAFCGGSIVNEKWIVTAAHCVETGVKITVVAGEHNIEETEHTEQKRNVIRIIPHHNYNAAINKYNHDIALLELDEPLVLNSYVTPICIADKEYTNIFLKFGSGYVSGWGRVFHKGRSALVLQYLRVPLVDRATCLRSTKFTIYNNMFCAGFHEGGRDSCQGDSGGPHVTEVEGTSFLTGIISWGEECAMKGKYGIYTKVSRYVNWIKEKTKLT

Question: Which IC50 does the source give for `Cc1ccc(CN2CCO[C@H]([C@@H](O)C(=O)Nc3ccc(C(=N)N)cc3)C2=O)cc1` here?
Answer: The IC50 was 130 nM.
